# Reference: the supplement of paper PMC5303821, “Major sulfonate transporter Soa1 in Saccharomyces cerevisiae and considerable substrate diversity in its fungal family” (Nature Communications, 2017)
# How the values were obtained:
# Conditions in all cases: sulfur source concentration 200 µM; S. cerevisiae S288C/BY sul1Δ sul2Δ soa1Δ with transporter ortholog inserted at SOA1 locus; sulfur-free B medium, 4% glucose, pH 6.5, sole sulfur source
# [1] = test system: Aspergillus nidulans (IAM 2006)_astA; experiment: maximal culture density with compound as sole sulfur source (OD600); higher = better growth
# Procedure: (§1)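 S. cerevisiae sul1Δ sul2Δ soa1Δ strains expressing 20 fungal SOA1 orthologs (or no transporter, 'soa1 del') were grown in liquid sulfur-free B medium, 4% glucose, pH 6.5 (7 mM K2HPO4). The strains were sulfur-starved for 3 days beforehand. Each sulfur compound was the sole sulfur source at 200 µM (sulfate also at 40 mM). OD600 curves of duplicate cultures were averaged and fitted (logistic / Richards, GroFit) to give maximal growth rate, maximal density and lag phase; temperature not stated.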
# [2] = test system: Aspergillus nidulans_CBF80346; experiment: as above
# Procedure: as §1
# [3] = test system: Aspergillus nidulans_XP_660670; experiment: as above
# Procedure: as §1
# [4] = test system: Aspergillus nidulans_XP_661711; experiment: as above
# Procedure: as §1
# [5] = test system: Aspergillus nidulans_XP_661733; experiment: as above
# Procedure: as §1
# [6] = test system: Fusarium oxysporum_ENH65823; experiment: as above
# Procedure: as §1
# [7] = test system: Metarhizium robertsii_XP_007821441; experiment: as above
# Procedure: as §1
# [8] = test system: Metarhizium robertsii_XP_007822519; experiment: as above
# Procedure: as §1
# [9] = test system: Saccharomyces cerevisiae_SOA1; experiment: as above
# Procedure: as §1
# [10] = test system: Saccharomyces eubayanus_SOA1; experiment: as above
# Procedure: as §1
# [11] = test system: Saccharomyces eubayanus_SOA2; experiment: as above
# Procedure: as §1
# [12] = test system: Saccharomyces uvarum_SOA2; experiment: as above
# Procedure: as §1
# soa1 del [13] = experiment: as above
# Procedure: as §1
# [14] = test system: Aspergillus nidulans (IAM 2006)_astA; experiment: maximal growth rate with compound as sole sulfur source (OD600 per h); higher = better growth / uptake of the sulfur source
# Procedure: as §1
# [15] = test system: Aspergillus nidulans_CBF74694; experiment: as above
# Procedure: as §1
# [16] = test system: Aspergillus nidulans_CBF80346; experiment: as above
# Procedure: as §1
# [17] = test system: Aspergillus nidulans_XP_660563; experiment: as above
# Procedure: as §1
# [18] = test system: Aspergillus nidulans_XP_660670; experiment: as above
# Procedure: as §1
# [19] = test system: Aspergillus nidulans_XP_661711; experiment: as above
# Procedure: as §1
# [20] = test system: Aspergillus nidulans_XP_661733; experiment: as above
# Procedure: as §1
# [21] = test system: Aspergillus nidulans_XP_681611; experiment: as above
# Procedure: as §1
# [22] = test system: Fusarium oxysporum_ENH65823; experiment: as above
# Procedure: as §1
# [23] = test system: Metarhizium robertsii_XP_007821441; experiment: as above
# Procedure: as §1
# [24] = test system: Metarhizium robertsii_XP_007822519; experiment: as above
# Procedure: as §1
# [25] = test system: Metarhizium robertsii_XP_007823832; experiment: as above
# Procedure: as §1
# [26] = test system: Ogataea parapolymorpha_XP_013932458; experiment: as above
# Procedure: as §1
# [27] = test system: Ogataea parapolymorpha_XP_013935289; experiment: as above
# Procedure: as §1
# [28] = test system: Ogataea parapolymorpha_XP_013936897; experiment: as above
# Procedure: as §1
# [29] = test system: Saccharomyces cerevisiae_SOA1; experiment: as above
# Procedure: as §1
# [30] = test system: Saccharomyces eubayanus_SOA1; experiment: as above
# Procedure: as §1
# [31] = test system: Saccharomyces eubayanus_SOA2; experiment: as above
# Procedure: as §1
# [32] = test system: Saccharomyces uvarum_SOA1; experiment: as above
# Procedure: as §1
# [33] = test system: Saccharomyces uvarum_SOA2; experiment: as above
# Procedure: as §1
# soa1 del [34] = experiment: as above
# Procedure: as §1
smiles,measurement,setting,value
CCCCS(=O)(=O)O [Butanesulfonate],maximal culture density,[1],0.596
same,maximal culture density,[2],0.26
same,maximal culture density,[3],0.267
same,maximal culture density,[4],0.267
same,maximal culture density,[5],0.279
same,maximal culture density,[6],0.241
same,maximal culture density,[7],0.246
same,maximal culture density,[8],0.261
same,maximal culture density,[9],1.58
same,maximal culture density,[10],1.57
same,maximal culture density,[11],1.69
same,maximal culture density,[12],1.71
same,maximal culture density,soa1 del [13],0.247
same,maximal growth rate,[14],0.0185
same,maximal growth rate,[15],0.00269
same,maximal growth rate,[16],0.00447
same,maximal growth rate,[17],0.00657
same,maximal growth rate,[18],0.00393
same,maximal growth rate,[19],0.00392
same,maximal growth rate,[20],0.00595
same,maximal growth rate,[21],0.00666
same,maximal growth rate,[22],0.00349
same,maximal growth rate,[23],0.00375
same,maximal growth rate,[24],0.00366
same,maximal growth rate,[25],0.0152
same,maximal growth rate,[26],0.00411
same,maximal growth rate,[27],0.087
same,maximal growth rate,[28],0.0049
same,maximal growth rate,[29],0.0882
same,maximal growth rate,[30],0.0734
same,maximal growth rate,[31],0.0837
same,maximal growth rate,[32],0.0795
same,maximal growth rate,[33],0.0878
same,maximal growth rate,soa1 del [34],0.00398
